Measured values from patent US8778928B2 (priority 2009, dated 2014).
Structures can show the parent of a compound that is named as a salt.

target: α7-subtype of nicotinic receptors (Rattus norvegicus, UniProt Q05941); assay: biochemical; format: binding
Sequence (Q05941 23-502): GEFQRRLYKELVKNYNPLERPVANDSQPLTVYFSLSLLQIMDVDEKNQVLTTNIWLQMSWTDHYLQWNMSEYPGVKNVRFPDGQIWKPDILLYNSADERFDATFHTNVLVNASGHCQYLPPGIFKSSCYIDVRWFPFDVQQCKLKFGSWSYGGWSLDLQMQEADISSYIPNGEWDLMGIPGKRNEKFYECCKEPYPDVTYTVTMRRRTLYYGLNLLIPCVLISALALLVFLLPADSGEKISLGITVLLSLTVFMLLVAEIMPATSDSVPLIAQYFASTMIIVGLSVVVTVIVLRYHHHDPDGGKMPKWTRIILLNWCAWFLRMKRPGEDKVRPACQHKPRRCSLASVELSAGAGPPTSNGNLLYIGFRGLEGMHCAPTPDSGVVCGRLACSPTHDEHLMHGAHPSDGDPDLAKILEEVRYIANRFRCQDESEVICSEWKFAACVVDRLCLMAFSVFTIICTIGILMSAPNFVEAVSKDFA

| SMILES | IC50 [nM] |
| --- | --- |
| c1cc2ccc(-c3nnc(N4CCN5CCC4CC5)o3)cc2[nH]1 [Compound A3, 2-(1,4-diazabicyclo[3.2.2]nonan-4-yl)-5-(1H-indol-6-yl)-1,3,4-oxadiazole free base] | 16 |
| Cn1ccc2ccc(-c3nnc(N4CCN5CCC4CC5)o3)cc21 [Compound A1, 4-[5-(1-Methyl-1H-indol-6-yl)-[1,3,4]oxadiazol-2-yl]-1,4-diaza-bicyclo[3.2.2]nonane fumaric acid salt] | 11 |
| FCCn1ccc2ccc(-c3nnc(N4CCN5CCC4CC5)o3)cc21 [Compound A2, 4-{5-[1-(2-Fluoro-ethyl)-1H-indol-6-yl]-[1,3,4]oxadiazol-2-yl}-1,4-diaza-bicyclo[3.2.2]nonane fumaric acid salt] | 4.2 |
| CC(C)n1ccc2ccc(-c3nnc(N4CCN5CCC4CC5)o3)cc21 [Compound A4, 2-(1,4-diazabicyclo[3.2.2]nonan-4-yl)-5-(1-isopropylindol-6-yl)-1,3,4-oxadiazole free base] | 39 |
| CCn1ccc2ccc(-c3nnc(N4CCN5CCC4CC5)o3)cc21 [Compound A5, 2-(1,4-diazabicyclo[3.2.2]nonan-4-yl)-5-(1-ethylindol-6-yl)-1,3,4-oxadiazole fumaric acid salt] | 3 |
